We go through 27 compounds from patent US9777020B2, “Furo-3-carboxamide derivatives and methods of use” (AbbVie Inc., priority 2014, dated 2017).

This experiment addresses TrkA (Homo sapiens (Human), UniProt P04629). In words: TrkA kinase HTRF enzyme inhibition assay. The conditions noted are these: TrkA pre-incubated with 200 μM ATP. The class given is biochemical. The procedure: TrkA enzyme was obtained from Invitrogen (as catalog numbers PV3144, PV3616, and PV3617, respectively). Enzyme activity was measured in an HTRF® (homogeneous time resolved fluorescence) assay, which detects enzymatic phosphorylation of a biotinylated synthetic peptide substrate (an LCK peptide analog, biotin-ahx-[…], from Genemed Synthesis). Phosphorylation is assessed by HTRF® in the presence of an anti-phosphotyrosine antibody conjugated to Eu^3+ cryptate (Cisbio) as donor fluorophore, and streptavidin conjugated to allophycocyanin (ProZyme) as acceptor fluorophore. The HTRF® signal was detected at two different wavelengths (620 nm and 665 nm) which were used to calculate the fluorescence ratio.
TrkA enzyme was titrated to a concentration optimized to ensure accurate measurement of the initial reaction rate. To allow the TrkA enzyme to undergo activation and auto-phosphorylation, a 20 minute pre-incubation with ATP was carried out (at twice the final targeted enzyme and ATP concentration) prior to addition of test compound and the peptide substrate.
TrkA in vitro assays were performed by pre-incubating TrkA (2-10 nM) with ATP (200 μM) for 20 minutes at ambient temperature in 50 mM HEPES pH 7.4, 10 mM MgCl2, 2 mM MnCl2, 100 μM Na3VO4, 1 mM dithiothreitol, 0.01% BSA (bovine serum albumin). Then, to the activated Trk enzyme mixture was added the test compound in 2% dimethyl sulfoxide. After 10 minutes, the peptide substrate (125 nM) was added. After 1 hour, enzyme reactions were terminated by addition of equal reaction volumes of detection/stop reagent (containing 0.2 μg/mL anti-phosphotyrosine monoclonal antibody labeled with europium from Cisbio (catalog#PT66-K), and 4 μg/mL PhycoLink® Streptavidin-Allophycocyanin conjugate from ProZyme (catalog#PJ25S) in 60 mM EDTA in 40 mM HEPES pH 7.4, 480 mM KF, 0.01% Tween® 20 and 0.1% BSA bovine serum albumin) Reaction plates were stored at 4° C. overnight before reading the fluorescence ratio signal on a PerkinElmer EnVision™ fluorescence detector. Individual reaction wells were stopped at time points to obtain reaction rates. The test inhibitor compounds were assayed in duplicate, at half-log serial dilutions over a range of concentrations (e.g. starting at 50 μM or 5 μM as the high compound concentration). The percent Trk enzyme inhibition was calculated from the initial rates of the inhibited reactions relative to the uninhibited control. IC50 values were calculated by fitting the inhibition percent to the concentration of inhibitor [I] in the assay in equation 1 below, to solve for the IC50. Inhibition %=100[I]/([I]+[IC50]) equation 1
(In general: TR-FRET usually uses a lanthanide donor and a delayed reading to cut background.)

Sequence of TrkA (P04629 33-796): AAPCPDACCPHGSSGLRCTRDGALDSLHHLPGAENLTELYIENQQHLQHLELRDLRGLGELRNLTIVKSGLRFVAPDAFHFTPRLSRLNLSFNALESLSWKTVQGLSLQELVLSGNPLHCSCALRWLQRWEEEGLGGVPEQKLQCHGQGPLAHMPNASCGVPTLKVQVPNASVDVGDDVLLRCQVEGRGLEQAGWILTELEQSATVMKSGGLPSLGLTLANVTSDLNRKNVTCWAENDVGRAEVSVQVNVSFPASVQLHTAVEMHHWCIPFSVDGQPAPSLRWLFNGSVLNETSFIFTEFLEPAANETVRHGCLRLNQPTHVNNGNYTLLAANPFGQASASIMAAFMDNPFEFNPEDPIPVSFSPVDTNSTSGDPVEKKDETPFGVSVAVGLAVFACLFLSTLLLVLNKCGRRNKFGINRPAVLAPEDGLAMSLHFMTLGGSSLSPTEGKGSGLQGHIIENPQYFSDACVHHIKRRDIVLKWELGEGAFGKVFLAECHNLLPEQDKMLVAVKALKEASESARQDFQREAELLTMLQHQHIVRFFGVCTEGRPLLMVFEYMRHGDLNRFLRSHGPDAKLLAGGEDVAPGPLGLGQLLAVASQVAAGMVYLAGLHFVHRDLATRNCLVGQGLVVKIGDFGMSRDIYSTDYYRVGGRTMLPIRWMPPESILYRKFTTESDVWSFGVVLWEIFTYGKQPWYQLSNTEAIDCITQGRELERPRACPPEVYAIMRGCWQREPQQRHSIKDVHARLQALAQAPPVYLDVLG

As to `O=C(Nc1ccc2c(cnn2CCO)c1)c1coc2c1C(=O)NCC2` [Example 53, N-[1-(2-hydroxyethyl)-1H-indazol-5-yl]-4-oxo-4,5,6,7-tetrahydrofuro[3,2-c]pyridine-3-carboxamide], the IC50 (usually the concentration needed to halve the response being measured) was found to be 0.0675 µM.

Take `CCOc1nc(N2CCN(C(C)=O)CC2)ccc1NC(=O)c1coc2c1C(=O)N(C)C(C)(C)C2` [Example 173, N-[6-(4-acetylpiperazin-1-yl)-2-ethoxypyridin-3-yl]-5,6,6-trimethyl-4-oxo-4,5,6,7-tetrahydrofuro[3,2-c]pyridine-3-carboxamide]: the IC50 turned out to be 0.0035 µM.

For the compound `CCOc1nc(CC(=O)OC)ccc1NC(=O)c1coc2c1C(=O)NCC2` [Example 108, methyl(6-ethoxy-5-{[(4-oxo-4,5,6,7-tetrahydrofuro[3,2-c]pyridin-3-yl)carbonyl]amino}pyridin-2-yl)acetate], the IC50 is 0.226 µM.

The compound `CCOc1nc(N2CCN(C(C)=O)CC2)ccc1NC(=O)c1coc2c1C(=O)N(CCO)C1(CCC1)C2` [Example 116, N-[6-(4-acetylpiperazin-1-yl)-2-ethoxypyridin-3-yl]-5′-(2-hydroxyethyl)-4′-oxo-4′,7′-dihydro-5′H-spiro[cyclobutane-1,6′-furo[3,2-c]pyridine]-3′-carboxamide] returned an IC50 of 0.0031 µM.

In the case of `CN1CCc2occ(C(=O)Nc3ccc4cn[nH]c4c3)c2C1=O` [Example 64, N-(1H-indazol-6-yl)-5-methyl-4-oxo-4,5,6,7-tetrahydrofuro[3,2-c]pyridine-3-carboxamide], the IC50 stood at 0.134 µM.

In turn, `COc1nc(N2CCN(C(=O)N3CCCC3)CC2)ccc1NC(=O)c1coc2c1C(=O)NC(C)(C)C2` [Example 123, N-{2-methoxy-6-[4-(pyrrolidin-1-ylcarbonyl)piperazin-1-yl]pyridin-3-yl}-6,6-dimethyl-4-oxo-4,5,6,7-tetrahydrofuro[3,2-c]pyridine-3-carboxamide] yielded an IC50 of 0.0119 µM.

In turn, `CCOc1nc(N2CCNCC2)ccc1NC(=O)c1coc2c1C(=O)NC(C)(C)C2` [Example 127, N-[2-ethoxy-6-(piperazin-1-yl)pyridin-3-yl]-6,6-dimethyl-4-oxo-4,5,6,7-tetrahydrofuro[3,2-c]pyridine-3-carboxamide] gave an IC50 of 0.0132 µM.

In turn, `CN1CCc2occ(C(=O)Nc3ccc(O)cc3)c2C1=O` [Example 59, N-(4-hydroxyphenyl)-5-methyl-4-oxo-4,5,6,7-tetrahydrofuro[3,2-c]pyridine-3-carboxamide] returned an IC50 of 0.984 µM.

As to `CN1CCc2occ(C(=O)Nc3cc4cn[nH]c4cc3Cl)c2C1=O` [Example 77, N-(6-chloro-1H-indazol-5-yl)-5-methyl-4-oxo-4,5,6,7-tetrahydrofuro[3,2-c]pyridine-3-carboxamide], the midpoint of inhibition, the IC50, lay at 0.367 µM.

For the compound `O=C(Nc1ccc2c(cnn2CCN2CCOCC2)c1)c1coc2c1C(=O)NCC2` [Example 56, N-{1-[2-(morpholin-4-yl)ethyl]-1H-indazol-5-yl}-4-oxo-4,5,6,7-tetrahydrofuro[3,2-c]pyridine-3-carboxamide], half-maximal inhibition (IC50) required 0.0485 µM.

`COc1cc(N2CCN(C(=O)OC(C)(C)C)CC2)ccc1NC(=O)c1coc2c1C(=O)NCC2` [Example 5, tert-butyl 4-(3-methoxy-4-{[(4-oxo-4,5,6,7-tetrahydrofuro[3,2-c]pyridin-3-yl)carbonyl]amino}phenyl)piperazine-1-carboxylate] came in with an IC50 of 0.0544 µM.

On to `CN1CCN(c2ccc(NC(=O)c3coc4c3C(=O)NCCC4)c(Oc3ccc(CO)cc3)n2)CC1` [Example 83, N-{2-[4-(hydroxymethyl)phenoxy]-6-(4-methylpiperazin-1-yl)pyridin-3-yl}-4-oxo-5,6,7,8-tetrahydro-4H-furo[3,2-c]azepine-3-carboxamide], for which the IC50 stood at 0.496 µM.

On to `CN1CCc2occ(C(=O)Nc3ccc(C(N)=O)cc3)c2C1=O` [Example 26, N-(4-carbamoylphenyl)-5-methyl-4-oxo-4,5,6,7-tetrahydrofuro[3,2-c]pyridine-3-carboxamide], for which the IC50 came to 0.202 µM.

`CN1CCc2occ(C(=O)Nc3ccc(C(F)(F)F)cn3)c2C1=O` [Example 76, 5-methyl-4-oxo-N-[5-(trifluoromethyl)pyridin-2-yl]-4,5,6,7-tetrahydrofuro[3,2-c]pyridine-3-carboxamide] returned an IC50 of 1.53 µM.

Consider `CN1CCc2occ(C(=O)Nc3cnc4ccccc4c3)c2C1=O` [Example 62, 5-methyl-4-oxo-N-(quinolin-3-yl)-4,5,6,7-tetrahydrofuro[3,2-c]pyridine-3-carboxamide], for which it took 0.827 µM to reach half-maximal inhibition (IC50).

`CN1CCN(c2ccc(NC(=O)c3coc4c3C(=O)N(C)CC4)cc2)CC1` [Example 22, 5-methyl-N-[4-(4-methylpiperazin-1-yl)phenyl]-4-oxo-4,5,6,7-tetrahydrofuro[3,2-c]pyridine-3-carboxamide] displayed an IC50 of 0.2 µM.

`COc1nc(N2CCN(C(C)=O)CC2)ccc1NC(=O)c1coc2c1C(=O)CC1(CCOCC1)C2` [Example 110, N-[6-(4-acetylpiperazin-1-yl)-2-methoxypyridin-3-yl]-4-oxo-2′,3′,4,5′,6′,7-hexahydro-5H-spiro[1-benzofuran-6,4′-pyran]-3-carboxamide] had an IC50 of 0.0392 µM.

On to `COCCOc1nc(N2CCN(C(C)=O)CC2)ccc1NC(=O)c1coc2c1C(=O)NCC2` [Example 20, N-[6-(4-acetylpiperazin-1-yl)-2-(2-methoxyethoxyl)pyridin-3-yl]-4-oxo-4,5,6,7-tetrahydrofuro[3,2-c]pyridine-3-carboxamide], for which inhibition was half-maximal at 0.0259 µM (IC50).

Turning to `COC(=O)c1n[nH]c2ccc(NC(=O)c3coc4c3C(=O)NCC4)cc12` [Example 48, methyl 5-{[(4-oxo-4,5,6,7-tetrahydrofuro[3,2-c]pyridin-3-yl)carbonyl]amino}-1H-indazole-3-carboxylate], the IC50 worked out at 0.506 µM.

As to `COCCOc1nc(N2CCN(C(C)=O)CC2)ccc1NC(=O)c1coc2c1C(=O)N(CCOCc1ccccc1)CC2` [Example 85, N-[6-(4-acetylpiperazin-1-yl)-2-(2-methoxyethoxyl)pyridin-3-yl]-5-[2-(benzyloxy)ethyl]-4-oxo-4,5,6,7-tetrahydrofuro[3,2-c]pyridine-3-carboxamide], the IC50 came out at 0.266 µM.

`CC(C)Oc1nc(N2CCC[C@H](CO)C2)ccc1NC(=O)c1coc2c1C(=O)NC(C)(C)C2` [Example 137, N-{6-[(3S)-3-(hydroxymethyl)piperidin-1-yl]-2-isopropoxypyridin-3-yl}-6,6-dimethyl-4-oxo-4,5,6,7-tetrahydrofuro[3,2-c]pyridine-3-carboxamide] yielded an IC50 of 0.0133 µM.

`O=C(Nc1ccc2cn[nH]c2c1)c1coc2c1C(=O)NCC2` [Example 34, N-(1H-indazol-6-yl)-4-oxo-4,5,6,7-tetrahydrofuro[3,2-c]pyridine-3-carboxamide] showed an IC50 of 0.91 µM.

With `CC1(C)CC(=O)c2c(C(=O)Nc3ccc(N4CCN(S(C)(=O)=O)CC4)cn3)coc2C1` [Example 155, 6,6-dimethyl-N-{5-[4-(methylsulfonyl)piperazin-1-yl]pyridin-2-yl}-4-oxo-4,5,6,7-tetrahydro-1-benzofuran-3-carboxamide], the midpoint of inhibition, the IC50, lay at 0.0548 µM.

In turn, `COc1cc(N2CCN(C(C)=O)CC2)ccc1NC(=O)c1coc2c1C(=O)C(C)(CN)CC2` (stereo not drawn) [Example 169, N-[4-(4-acetylpiperazin-1-yl)-2-methoxyphenyl]-5-(aminomethyl)-5-methyl-4-oxo-4,5,6,7-tetrahydro-1-benzofuran-3-carboxamide] gave an IC50 of 0.0596 µM.

The compound `CCOc1nc(N2CCN(C(C)=O)CC2)ccc1NC(=O)c1coc2c1C(=O)N(CCO)C(C)(C)C2` [Example 174, N-[6-(4-acetylpiperazin-1-yl)-2-ethoxypyridin-3-yl]-5-(2-hydroxyethyl)-6,6-dimethyl-4-oxo-4,5,6,7-tetrahydrofuro[3,2-c]pyridine-3-carboxamide] came in with an IC50 of 0.0052 µM.

For the compound `CCOc1nc(N2CCN(C(C)=O)CC2)ccc1NC(=O)c1coc2c1C(=O)N(CC(C)(C)O)CC2` [Example 104, N-[6-(4-acetylpiperazin-1-yl)-2-ethoxypyridin-3-yl]-5-(2-hydroxy-2-methylpropyl)-4-oxo-4,5,6,7-tetrahydrofuro[3,2-c]pyridine-3-carboxamide], 0.006 µM corresponded to half-maximal inhibition (IC50).

`Cc1cc2[nH]ncc2cc1NC(=O)c1coc2c1C(=O)NCC2` [Example 46, N-(6-methyl-1H-indazol-5-yl)-4-oxo-4,5,6,7-tetrahydrofuro[3,2-c]pyridine-3-carboxamide]: the IC50 came to 0.855 µM.
